{"source": "patent US4146613A", "about": "“Oral anti-diabetic drug composition” (THERA Gesellschaft fur Patentverwertung mbH, priority 1976, dated 1979)", "origin": "cited, not measured here", "test_system": "blood sugar", "data": [{"substance": "kallikrein", "values": [{"measurement": "persistence of blood sugar lowering effect", "setting": "after administering for several days, for example after three days", "value": "the effect would diminish or disappear"}, {"measurement": "blood sugar lowering", "setting": "also if applied orally, Frey et al 1932", "value": "lower slightly the blood sugar"}]}]}
